Compound in one assay: COc1cc2nccc(Oc3ccc(NC(=O)C4(C(=O)Nc5ccc(F)cc5)CC4)cc3)c2cc1OC [CABOZANTINIB]
In words: surviving fraction relative to DMSO-only wells; higher = less growth inhibition. The settings on record: exposure time: 5 days. The method in brief:
(§1)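 Inhibitors were tested at 0.5, 1, 5, 10, 50, 100, 500 and 1000 nM, applied continuously for five days beginning 24 hours after log-phase tumour cells were seeded at 250–500 per well in 384-well plates. CellTiter-Glo luminescence served as the viability measure, expressed as surviving fraction against the median of DMSO-only wells. Each line, screened three times, was kept only with replicate Pearson r >0.7 and median Z' >0.3.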

Compound in assay [1]: C[C@H](CN(C)C)Oc1nc(Nc2cc3cccc(Cl)c3cn2)cnc1C#N
The description is as above. The following applies: exposure time: 5 days. An outline of the steps:
as §1

± gives the standard deviation of the averaged measurements.

With PCI30 HEADNECK, the surviving fraction with CABOZANTINIB (0.5 nM) came out at 0.86 ± 0.039; with CABOZANTINIB (1 nM), 0.864 ± 0.05; in the assay with CABOZANTINIB (5 nM), 0.954 ± 0.066; in the assay with CABOZANTINIB (10 nM) it was 1.07 ± 0.048; with CABOZANTINIB (50 nM) it was 1 ± 0.019; in the assay with CABOZANTINIB (100 nM), 1.03 ± 0.057. For the same test system, the surviving fraction with CABOZANTINIB (500 nM) turned out to be 0.841 ± 0.036; with CABOZANTINIB (1000 nM), 0.84 ± 0.15; in assay [1] (0.5 nM), 0.99 ± 0.044; in assay [1] (1 nM), 0.999 ± 0.019; in assay [1] (5 nM), 1.06 ± 0.059; in assay [1] (10 nM), 1.06 ± 0.11. Moreover, the surviving fraction was found to be 0.9137 ± 0.0042 in assay [1] (50 nM), 0.827 ± 0.079 in assay [1] (100 nM), 0.337 ± 0.021 in assay [1] (500 nM) and 0.322 ± 0.017 in assay [1] (1000 nM).
In the case of SAOS2 BONE, the surviving fraction in the assay with CABOZANTINIB (0.5 nM) stood at 1.13 ± 0.038; in the assay with CABOZANTINIB (1 nM) it was 1.12 ± 0.069; with CABOZANTINIB (5 nM), 1.18 ± 0.12; in the assay with CABOZANTINIB (10 nM), 1.14 ± 0.015; with CABOZANTINIB (50 nM), 1.17 ± 0.14; with CABOZANTINIB (100 nM) it was 1.14 ± 0.14. Besides, the surviving fraction with CABOZANTINIB (500 nM) came to 0.993 ± 0.073; in the assay with CABOZANTINIB (1000 nM) it was 1.01 ± 0.14; in assay [1] (0.5 nM), 1.18 ± 0.055; in assay [1] (1 nM), 1.19 ± 0.047; in assay [1] (5 nM) it was 1.17 ± 0.058; in assay [1] (10 nM), 1.137 ± 0.01. Moreover, the surviving fraction in assay [1] (50 nM) was 1.39 ± 0.1; in assay [1] (100 nM), 1.32 ± 0.068; in assay [1] (500 nM), 1.08 ± 0.12; in assay [1] (1000 nM) it was 0.944 ± 0.042.
Take MDAMB157 BREAST: the surviving fraction was determined as 0.933 ± 0.056 with CABOZANTINIB (0.5 nM); 0.953 ± 0.049 in the assay with CABOZANTINIB (1 nM); 1 ± 0.025 with CABOZANTINIB (5 nM); 0.959 ± 0.031 in the assay with CABOZANTINIB (10 nM); 0.994 ± 0.048 with CABOZANTINIB (50 nM); 0.891 ± 0.054 with CABOZANTINIB (100 nM). The surviving fraction with CABOZANTINIB (500 nM) stood at 0.798 ± 0.072; with CABOZANTINIB (1000 nM) it was 0.733 ± 0.03; in assay [1] (0.5 nM), 0.946 ± 0.057; in assay [1] (1 nM), 0.982 ± 0.033; in assay [1] (5 nM) it was 1.01 ± 0.021; in assay [1] (10 nM), 0.947 ± 0.048. Further, the surviving fraction in assay [1] (50 nM) was 1.03 ± 0.051; in assay [1] (100 nM), 0.902 ± 0.11; in assay [1] (500 nM), 0.239 ± 0.015; in assay [1] (1000 nM), 0.136 ± 0.029.
Consider U2OS BONE, for which the surviving fraction was 1.015 ± 0.0081 with CABOZANTINIB (0.5 nM); 1.02 ± 0.028 with CABOZANTINIB (1 nM); 1.03 ± 0.022 with CABOZANTINIB (5 nM); 1.003 ± 0.0091 with CABOZANTINIB (10 nM); 1.03 ± 0.046 with CABOZANTINIB (50 nM); 1.02 ± 0.015 with CABOZANTINIB (100 nM). For the same test system, the surviving fraction in the assay with CABOZANTINIB (500 nM) was 0.932 ± 0.018; with CABOZANTINIB (1000 nM), 0.914 ± 0.02; in assay [1] (0.5 nM), 1.04 ± 0.053; in assay [1] (1 nM) it was 1 ± 0.039; in assay [1] (5 nM), 1.02 ± 0.027; in assay [1] (10 nM), 0.993 ± 0.081. For the same test system, the surviving fraction in assay [1] (50 nM) was 1.05 ± 0.043; in assay [1] (100 nM), 1.03 ± 0.025; in assay [1] (500 nM), 0.277 ± 0.028; in assay [1] (1000 nM), 0.159 ± 0.013.
Consider 22RV1 PROSTATE, for which the surviving fraction with CABOZANTINIB (0.5 nM) was determined as 0.946 ± 0.039; with CABOZANTINIB (1 nM) it was 1.03 ± 0.018; in the assay with CABOZANTINIB (5 nM), 0.992 ± 0.056; with CABOZANTINIB (10 nM) it was 1 ± 0.13; with CABOZANTINIB (50 nM) it was 1.03 ± 0.06; with CABOZANTINIB (100 nM), 1.08 ± 0.15. The surviving fraction with CABOZANTINIB (500 nM) worked out at 1.07 ± 0.095; with CABOZANTINIB (1000 nM), 0.909 ± 0.18; in assay [1] (0.5 nM) it was 1.15 ± 0.15; in assay [1] (1 nM), 1.02 ± 0.071; in assay [1] (5 nM) it was 1.01 ± 0.074; in assay [1] (10 nM), 1.06 ± 0.15. In addition, the surviving fraction was 0.999 ± 0.046 in assay [1] (50 nM), 0.887 ± 0.14 in assay [1] (100 nM), 1.03 ± 0.037 in assay [1] (500 nM) and 0.838 ± 0.12 in assay [1] (1000 nM).
For the test system HCC1954 BREAST, the surviving fraction came to 0.955 ± 0.018 with CABOZANTINIB (0.5 nM); 1.04 ± 0.02 with CABOZANTINIB (1 nM); 1.03 ± 0.13 in the assay with CABOZANTINIB (5 nM); 1.02 ± 0.16 in the assay with CABOZANTINIB (10 nM); 1.1 ± 0.073 with CABOZANTINIB (50 nM); 0.921 ± 0.0035 in the assay with CABOZANTINIB (100 nM). Besides, the surviving fraction was 1.0215 ± 0.00071 with CABOZANTINIB (500 nM); 1.02 ± 0.055 in the assay with CABOZANTINIB (1000 nM); 1.14 ± 0.11 in assay [1] (0.5 nM); 1.24 ± 0.018 in assay [1] (1 nM); 1.32 ± 0.023 in assay [1] (5 nM); 1.11 ± 0.15 in assay [1] (10 nM). Moreover, the surviving fraction in assay [1] (50 nM) came to 1.35 ± 0.051; in assay [1] (100 nM) it was 1.04 ± 0.024; in assay [1] (500 nM), 0.48 ± 0.072; in assay [1] (1000 nM) it was 0.242 ± 0.02.
As to HCC202 BREAST, the surviving fraction with CABOZANTINIB (0.5 nM) amounted to 1.12 ± 0.14; with CABOZANTINIB (1 nM), 1.11 ± 0.079; with CABOZANTINIB (5 nM), 1.2 ± 0.031; with CABOZANTINIB (10 nM) it was 1.15 ± 0.17; with CABOZANTINIB (50 nM), 1.1 ± 0.28; with CABOZANTINIB (100 nM) it was 1.13 ± 0.065. The surviving fraction with CABOZANTINIB (500 nM) turned out to be 1.31 ± 0.12; with CABOZANTINIB (1000 nM), 1.09 ± 0.098; in assay [1] (0.5 nM), 1.08 ± 0.39; in assay [1] (1 nM), 1.03 ± 0.41; in assay [1] (5 nM), 1.22 ± 0.065; in assay [1] (10 nM) it was 1.01 ± 0.022. Besides, the surviving fraction in assay [1] (50 nM) is 0.984 ± 0.052; in assay [1] (100 nM), 0.886 ± 0.34; in assay [1] (500 nM), 0.413 ± 0.071; in assay [1] (1000 nM) it was 0.376 ± 0.04.
As for SCC90 HEADNECK, the surviving fraction was 0.858 ± 0.053 with CABOZANTINIB (0.5 nM); 0.819 ± 0.089 in the assay with CABOZANTINIB (1 nM); 0.9093 ± 0.0042 in the assay with CABOZANTINIB (5 nM); 0.997 ± 0.086 with CABOZANTINIB (10 nM); 1.09 ± 0.17 in the assay with CABOZANTINIB (50 nM); 1.05 ± 0.15 in the assay with CABOZANTINIB (100 nM). Also, the surviving fraction came out at 0.852 ± 0.081 with CABOZANTINIB (500 nM); 0.874 ± 0.087 with CABOZANTINIB (1000 nM); 1.05 ± 0.08 in assay [1] (0.5 nM); 1.02 ± 0.082 in assay [1] (1 nM); 1.02 ± 0.09 in assay [1] (5 nM); 0.936 ± 0.1 in assay [1] (10 nM). The surviving fraction in assay [1] (50 nM) came out at 0.991 ± 0.038; in assay [1] (100 nM), 0.911 ± 0.034; in assay [1] (500 nM) it was 0.189 ± 0.03; in assay [1] (1000 nM) it was 0.215 ± 0.021.

The values above are taken from the supplement of paper PMC6045584.
